Test systems include 786-0 renal; ACHN renal; HOP-62 NSCLC; HT29 colon; MDA-MB-231 breast; NCI-H460 lung; RPMI-8226 leukemia; SK-MEL-28 melanoma; U251 CNS; UACC-257 melanoma.
Holding throughout (experiment): NCI anticancer screen, dose series, 48 h

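Step 1: Grow cells in 96-well plates. Step 2: Expose to compound for 48 hours at 5 concentrations. Step 3: Interpolate endpoints linearly; if unreached, use highest concentration. GI50: concentration for 50% inhibition of growth. TGI: concentration producing complete growth inhibition.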 Where only a bound is given, the exact number is not on record here.

`Nc1ncnc2c1nc(N)n2C1OC(CO)C(O)C1O` (stereo not given): the GI50 with 786-0 renal is 1550 nM; in the assay on ACHN renal it was 348 nM; with HOP-62 NSCLC, 311 nM; in the assay with HT29 colon, 58.9 nM; in the assay on MDA-MB-231 breast, 518 nM; with NCI-H460 lung it was 454 nM. The GI50 in the assay on RPMI-8226 leukemia was 973 nM; in the assay with SK-MEL-28 melanoma, 267 nM; with U251 CNS, 1350 nM; with UACC-257 melanoma it was 229 nM. Also, the TGI is 3710 nM in the assay on 786-0 renal; above 100000 nM in the assay on ACHN renal; 2710 nM in the assay on HOP-62 NSCLC; 1310 nM in the assay on HT29 colon; 4860 nM in the assay on MDA-MB-231 breast; 1930 nM with NCI-H460 lung. For the same compound, the TGI with RPMI-8226 leukemia came to 6480 nM; in the assay on SK-MEL-28 melanoma, 1330 nM; in the assay on U251 CNS, 7060 nM; in the assay with UACC-257 melanoma it was 857 nM.

On to `COC(=O)c1c2c(c(C)[n+]([O-])c1C)C(=O)C=C(NCc1ccc(Br)cc1)C2=O`, for which the GI50 in the assay with 786-0 renal is 637 nM; in the assay with ACHN renal, 575 nM; in the assay on HOP-62 NSCLC it was 1050 nM; with HT29 colon, 339 nM; in the assay on MDA-MB-231 breast, 300 nM; in the assay with NCI-H460 lung, 431 nM. Also, the GI50 in the assay with RPMI-8226 leukemia is 1470 nM; with SK-MEL-28 melanoma, 987 nM; in the assay with U251 CNS, 778 nM; in the assay with UACC-257 melanoma, 229 nM. The TGI in the assay on 786-0 renal was 2230 nM; in the assay on ACHN renal, 2100 nM; in the assay on HOP-62 NSCLC it was 2470 nM; in the assay on HT29 colon it was above 100000 nM; in the assay on MDA-MB-231 breast, 3820 nM; with NCI-H460 lung, 1990 nM. In addition, the TGI in the assay with RPMI-8226 leukemia was determined as 5100 nM; with SK-MEL-28 melanoma, 2720 nM; with U251 CNS it was 2460 nM; in the assay with UACC-257 melanoma, 907 nM.

As for `CS(=O)/C(C#N)=C\C=C\c1cccc(Cl)c1` (stereo not given), the GI50 in the assay with 786-0 renal is 3210 nM; in the assay with ACHN renal, 2780 nM; in the assay on HOP-62 NSCLC it was 4560 nM; in the assay on HT29 colon it was 3260 nM; in the assay on MDA-MB-231 breast it was 2730 nM; with NCI-H460 lung, 2410 nM. In addition, the GI50 in the assay with RPMI-8226 leukemia was 2440 nM; with SK-MEL-28 melanoma it was 2680 nM; in the assay with U251 CNS it was 1710 nM; in the assay with UACC-257 melanoma it was 2410 nM. For the same compound, the TGI in the assay on 786-0 renal was found to be 12200 nM; in the assay on ACHN renal, 10400 nM; with HOP-62 NSCLC it was 16200 nM; in the assay on HT29 colon it was 13700 nM; with MDA-MB-231 breast it was 11700 nM; in the assay with NCI-H460 lung, 11200 nM. The TGI with RPMI-8226 leukemia is 12000 nM; with SK-MEL-28 melanoma, 9780 nM; with U251 CNS it was 7810 nM; with UACC-257 melanoma, 12200 nM.

Take `O=Cc1c[nH]c2ccc(-c3csc4ccccc34)cc12`: the GI50 with 786-0 renal is 4260 nM; in the assay with ACHN renal, 5110 nM; in the assay on HOP-62 NSCLC, 3060 nM; in the assay on HT29 colon it was 3340 nM; with MDA-MB-231 breast it was 6280 nM; in the assay on NCI-H460 lung it was 3460 nM. Moreover, the GI50 was 1540 nM with RPMI-8226 leukemia, 5490 nM in the assay on SK-MEL-28 melanoma, 3640 nM with U251 CNS and 13200 nM in the assay on UACC-257 melanoma. The TGI is 41900 nM with 786-0 renal; above 100000 nM with ACHN renal; 39900 nM in the assay on HOP-62 NSCLC; above 100000 nM in the assay with HT29 colon; above 100000 nM in the assay with MDA-MB-231 breast; above 100000 nM with NCI-H460 lung. The TGI with RPMI-8226 leukemia was 7490 nM; in the assay with SK-MEL-28 melanoma it was above 100000 nM; with U251 CNS it was 21000 nM; in the assay on UACC-257 melanoma it was above 100000 nM.
